Experiments:
human PDGFRα = molecular target: T1, human PDGFRα (Homo sapiens, UniProt P16234); experiment: Human Phospho-PDGFRα ELISA; format: cell-based; conditions: HEL; Towne, AD169 and TR strains; IMC-3G3 10 μg/ml, 2 h pretreatment; HCMV MOI=1, 10 min
T1 construct: HEL cells that endogenously express PDGFRα; endogenous in cells; host or cells: HEL human embryonic lung fibroblasts (ATCC)
Method: (A) HEL cells stimulated with HCMV or PDGF-AA were subjected to immunoprecipitation and western blot analyses with indicated antibodies. (B) Phospho-PDGFRα ELISA of cells+/−pretreatment with IMC-3G3 (10 μg/ml, 2 h) followed by HCMV (MOI=1) or PDGF (10 ng/ml) for 10 min. Mean values (n=6)±S.D are shown. (C) Western blot of HEL mock, HCMV, or PDGF-AA stimulated (10 min), +/−IMC-3G3 (2 μg/ml) or Gleevec® (Imatinib) (100 nM). The same membrane was used for p-Akt^Ser 473 and Akt.
(A) Immunofluorescence detection of gB (upper panels) and PDGFRα (lower panels) in PDGFRα KO cells and PDGFRα overexpressing (OE) cells, following incubation with the gB peptide or mock treatment. Reduced PDGFRα surface staining in gB-treated cells is likely due to receptor internalization. (B) and (C) Immunoprecipitation of PDGFRα and gB from HEL lysates and full-length soluble gB alone or pre-incubated together. Immunoprecipitates were subjected to western blot with the indicated antibodies. (D) ELISA of hPDGFRα phosphorylation after HCMV stimulation (MOI=1), PDGF (10 ng/ml) or recombinant soluble gB (30 μg/ml) in presence or absence of gB neutralizing antibodies 7-17 and Mab 758 (5 μg/ml); bars, ±S.D. (E) Portions of same lysates used in (D) were analyzed by western blot with indicated antibodies.
Human Phospho-PDGFRα ELISA. […] Reaction products were read using a microplate reader set at 450 nm. […]

HCMV = experiment: Viral attachment and internalization assay (pp65 immunofluorescence); format: cell-based, Human cytomegalovirus
Method: (A) HEL cells were pretreated with PBS (20 min 4° C.), IMC-3G3 (2 h, 37° C., 10 μg/ml), or PDGF-AA (20 min, 4° C., 10 ng/ml) prior to infection with HCMV (MOI of 1, 4° C., 1 h). Cells were returned to 37° C. for 30 minutes, and processed for pp65^HCMV and PDGFRα double immunofluorescence. […] All conditions were assayed in triplicate cultures. One hundred cells in 4 low magnification fields were counted. Bars represent SD.
Viral Attachment and Internalization Assays. Mouse fibroblasts and HEL cells (72 hours following siRNA transfections) were incubated with HCMV (MOI of 0.5) or mock treated for 1 hour at 4° C., after which cells were returned to 37° C. for 15, 30, or 60 min. Cells were fixed using methanol (20 min) and processed for pp65 immunofluorescence. Four low power fields were counted for each condition and pp65 positive were recorded for each 100 cells. Internalization assays were repeated twice.

T1 sequence (P16234 24-1089): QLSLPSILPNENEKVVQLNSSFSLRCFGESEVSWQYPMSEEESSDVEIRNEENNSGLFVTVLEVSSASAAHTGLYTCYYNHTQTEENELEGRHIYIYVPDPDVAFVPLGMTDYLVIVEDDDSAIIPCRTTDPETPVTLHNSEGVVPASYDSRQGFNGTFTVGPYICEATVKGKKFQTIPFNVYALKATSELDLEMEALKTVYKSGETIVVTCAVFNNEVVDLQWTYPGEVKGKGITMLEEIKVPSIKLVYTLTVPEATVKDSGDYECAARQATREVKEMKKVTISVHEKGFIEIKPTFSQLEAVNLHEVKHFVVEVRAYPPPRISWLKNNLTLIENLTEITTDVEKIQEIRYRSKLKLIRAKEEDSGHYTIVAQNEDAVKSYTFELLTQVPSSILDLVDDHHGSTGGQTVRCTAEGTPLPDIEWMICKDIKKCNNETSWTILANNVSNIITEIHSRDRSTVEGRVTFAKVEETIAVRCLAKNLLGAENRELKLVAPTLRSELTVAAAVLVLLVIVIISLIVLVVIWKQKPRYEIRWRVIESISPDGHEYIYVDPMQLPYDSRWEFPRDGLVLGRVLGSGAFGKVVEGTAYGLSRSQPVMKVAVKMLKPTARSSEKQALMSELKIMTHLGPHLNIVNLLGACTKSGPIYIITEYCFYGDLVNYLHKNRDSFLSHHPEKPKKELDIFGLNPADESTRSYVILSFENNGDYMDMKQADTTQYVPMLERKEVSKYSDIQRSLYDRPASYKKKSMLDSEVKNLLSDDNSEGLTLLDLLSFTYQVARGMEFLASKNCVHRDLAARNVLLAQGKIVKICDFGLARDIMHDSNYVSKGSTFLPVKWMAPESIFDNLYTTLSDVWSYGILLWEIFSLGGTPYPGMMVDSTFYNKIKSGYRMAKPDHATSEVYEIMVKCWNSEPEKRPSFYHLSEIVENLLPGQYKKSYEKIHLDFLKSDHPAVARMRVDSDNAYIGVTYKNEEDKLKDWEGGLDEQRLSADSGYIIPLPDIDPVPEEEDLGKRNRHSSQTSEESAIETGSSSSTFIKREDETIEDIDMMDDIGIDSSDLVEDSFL

## IMC-3G3: humanized PDGFRα blocking antibody (ImClone Inc.)
Human PDGFRα
  PDGFRα phosphorylation induced by HCMV strains: significantly inhibited
HCMV; HEL cells, IMC-3G3 2 h, 37° C., 10 μg/ml, PDGF-AA 20 min, 4° C., 10 ng/ml, HCMV MOI of 1, 30 min at 37° C.
  inhibition of HCMV entry (pp65 positive cells): ~45%
HCMV; human epithelial, endothelial, and fibroblast cells
  HCMV viral internalization: completely inhibited

Reference: patent US9340788B2 (priority 2007, dated 2016)
